In patent publication US10052330B2, “Substituted pyrido[3,4-b]pyrazines as Syk inhibitors” (HUTCHISON MEDIPHARMA LIMITED, priority 2011, dated 2018):

What was measured:
[1] = system: Bone marrow mast cells (BMMCs); assay: IgE-induced LAT phosphorylation in bone marrow mast cells; type: cell-based, mice; details: Mus musculus, BMMC; BMMCs from female BALB/C mice, sensitized with SPE-7, stimulated with DNP-BSA; upper bound is 'less than'; read-out: IC50, IgE-induced LAT phosphorylation
Syk kinase = Syk kinase (Homo sapiens, UniProt P43405); assay: Syk kinase enzymatic assay (Kit-Tyr 2 Peptide); type: biochemical; details: 8 concentrations, 1 μM down to 0.0003 μM; upper bound of each range is 'less than'; read-out: IC50: Enzymatic Activity (Syk kinase)
RBL-2H3 cells = assay: IgE-induced Beta-hexosaminidase secretion in RBL-2H3 cells; type: cell-based; details: Rattus norvegicus, RBL-2H3, RBL-2H3 cells sensitized with SPE-7, stimulated with DNP-BSA; upper bound of each range is 'less than'; read-out: IC50, IgE-induced Beta-hexosaminidase secretion

| Structure (SMILES) | IC50 [1] | IC50 (Syk kinase) | IC50 (RBL-2H3 cells) |
| --- | --- | --- | --- |
| COc1ccc(-c2cc3nccnc3c(NCC3CCCNC3)n2)cc1 (stereo not drawn) [Compound 10] | 100 to 1000 nM | 1 to 100 nM | 100 to 1000 nM |
| CN(C)c1ccc(-c2cc3nccnc3c(NCC3CCCNC3)n2)cc1 (stereo not drawn) [Compound 12] | 100 to 1000 nM | 1 to 100 nM | 1 to 100 nM |
| COc1ccc(-c2cc3nccnc3c(NC[C@H]3CCCNC3)n2)cc1F [Compound 35] | 100 to 1000 nM | 1 to 100 nM | 1 to 100 nM |
| CNc1ccc(-c2cc3nccnc3c(NCC3CCCNC3)n2)cc1 (stereo not drawn) [Compound 44] | 100 to 1000 nM | 1 to 100 nM | 1 to 100 nM |
| c1cnc2c(NC[C@H]3CCCNC3)nc(-c3ccc(N4CCCC4)cc3)cc2n1 [Compound 70] | 100 to 1000 nM | 1 to 100 nM | 1 to 100 nM |
| c1cnc2c(N3CCC4(CCNC4)C3)nc(-c3ccc(N4CCOCC4)cc3)cc2n1 (stereo not drawn) [Compound 71] | 100 to 1000 nM | 1 to 100 nM | 100 to 1000 nM |
| Nc1ccc(-c2cc3nccnc3c(NC[C@H]3CCCNC3)n2)cc1Cl [Compound 81] | 100 to 1000 nM | 1 to 100 nM | 100 to 1000 nM |
| CNc1ccc(-c2cc3nccnc3c(NC[C@H]3CCCNC3)n2)cc1 [Compound 82] | 100 to 1000 nM | 1 to 100 nM | 1 to 100 nM |
| COc1ccc(-c2cc3nccnc3c(NC[C@H]3CCCNC3)n2)cc1Cl [Compound 93] | 100 to 1000 nM | 1 to 100 nM | 1 to 100 nM |
| Cc1cc(-c2cc3nccnc3c(NC[C@H]3CCCNC3)n2)ccc1N1CCOCC1 [Compound 94] | 100 to 1000 nM | 1 to 100 nM | 100 to 1000 nM |
| c1cnc2c(NC[C@@H]3CNCCO3)nc(-c3ccc(N4CCOCC4)nc3)cc2n1 [Compound 99] | 100 to 1000 nM | 1 to 100 nM | 1 to 100 nM |
| c1cnc2c(N3CCC4(CCCNC4)C3)nc(-c3ccc(N4CCOCC4)cc3)cc2n1 (stereo not drawn) [Compound 105] | 100 to 1000 nM | 1 to 100 nM | 1 to 100 nM |
| CN(C)c1ccc(-c2cc3nccnc3c(NC[C@@H]3CNCCO3)n2)cc1 [Compound 107] | 100 to 1000 nM | 1 to 100 nM | 1 to 100 nM |
| Cc1cc(-c2cc3nccnc3c(NC[C@@H]3CNCCO3)n2)ccc1N1CCOCC1 [Compound 116] | 100 to 1000 nM | 1 to 100 nM | 1 to 100 nM |
| CNc1ccc(-c2cc3nccnc3c(NC[C@@H]3CNCCO3)n2)cc1F [Compound 137] | 100 to 1000 nM | 1 to 100 nM | 1 to 100 nM |
| CNc1ccc(-c2cc3nccnc3c(NC[C@H]3CCCNC3)n2)cc1F [Compound 140] | 100 to 1000 nM | 1 to 100 nM | 1 to 100 nM |
| FC1CNCC(CNc2nc(-c3ccc(N4CCOCC4)cc3)cc3nccnc23)C1 (stereo not drawn) [Compound 156] | 100 to 1000 nM | 1 to 100 nM | 1 to 100 nM |
| OC[C@@H]1CCN(c2nc(-c3ccc(N4CCOCC4)cc3)cc3nccnc23)C1 [Compound 159, (R)-(1-(7-(4-morpholinophenyl)pyrido[4,3-b]pyrazin-5-yl)pyrrolidin-3-yl)methanol] | 100 to 1000 nM | 100 to 1000 nM | 1 to 100 nM |
| C[C@H](O)CNc1nc(-c2ccc(N3CCOCC3)cc2)cc2nccnc12 [Compound 161] | 100 to 1000 nM | 100 to 1000 nM | 100 to 1000 nM |
| OC[C@H]1CCN(c2nc(-c3ccc(N4CCOCC4)cc3)cc3nccnc23)C1 [Compound 163, (S)-(1-(7-(4-morpholinophenyl)pyrido[4,3-b]pyrazin-5-yl)pyrrolidin-3-yl)methanol] | 100 to 1000 nM | 100 to 1000 nM | 1 to 100 nM |
| c1cnc2c(NC3CC3)nc(-c3ccc(N4CCOCC4)cc3)cc2n1 [Compound 181] | 100 to 1000 nM |  | 100 to 1000 nM |
| c1cc(CNc2nc(-c3ccc(N4CCOCC4)cc3)cc3nccnc23)ccn1 [Compound 184] | 100 to 1000 nM |  | 100 to 1000 nM |

| Structure (SMILES) | IC50 [1] | IC50 (Syk kinase) | IC50 (RBL-2H3 cells) |
| --- | --- | --- | --- |
| CN(C)c1ccc(-c2cc3nccnc3c(NCCCN)n2)cc1 [Compound 185] | 100 to 1000 nM | 1 to 100 nM | 100 to 1000 nM |
| NC(=O)CCNc1nc(-c2ccc(N3CCOCC3)cc2)cc2nccnc12 [Compound 188] | 100 to 1000 nM | 100 to 1000 nM | 1 to 100 nM |
| CCN1CCN(c2ccc(-c3cc4nccnc4c(NC[C@@H]4CN(S(C)(=O)=O)CCO4)n3)cc2)CC1 [Compound 487] |  | 1 to 100 nM | 100 to 1000 nM |
| CCN1CCN(c2ccc(-c3cc4nccnc4c(NC[C@@H]4CN(C(=O)C(F)F)CCO4)n3)cc2)CC1 [Compound 488] |  | 1 to 100 nM | 1 to 100 nM |
| O=C(C(F)F)N1CCO[C@H](CNc2nc(-c3ccc(N4CCN(CCO)CC4)cc3)cc3nccnc23)C1 [Compound 489] |  | 1 to 100 nM | 1 to 100 nM |
| O=C(C(F)F)N1CCO[C@H](CNc2nc(-c3ccc(N4CCN(CCCO)CC4)cc3)cc3nccnc23)C1 [Compound 490] |  | 1 to 100 nM | 1 to 100 nM |
| CS(=O)(=O)N1CCO[C@H](CNc2nc(-c3ccc(C4CCN(CCO)CC4)cc3)cc3nccnc23)C1 [Compound 493] |  | 1 to 100 nM | 100 to 1000 nM |
| CS(=O)(=O)N1CCO[C@H](CNc2nc(-c3ccc(C4CCN(CCCO)CC4)cc3)cc3nccnc23)C1 [Compound 494] |  | 1 to 100 nM | 100 to 1000 nM |
| O=S(=O)(C1CC1)N1CCC(c2ccc(-c3cc4nccnc4c(NC[C@@H]4CNCCO4)n3)cc2)CC1 [Compound 497] |  | 1 to 100 nM | 1 to 100 nM |
| CNS(=O)(=O)N1CCC(c2ccc(-c3cc4nccnc4c(NC[C@@H]4CNCCO4)n3)cc2)CC1 [Compound 498] |  | 1 to 100 nM | 1 to 100 nM |
| CN(C)S(=O)(=O)N1CCC(c2ccc(-c3cc4nccnc4c(NC[C@@H]4CNCCO4)n3)cc2)CC1 [Compound 499] |  | 1 to 100 nM | 1 to 100 nM |
| CS(=O)(=O)N1CCC(Nc2ccc(-c3cc4nccnc4c(NC[C@@H]4CNCCO4)n3)cc2)CC1 [Compound 500] |  | 1 to 100 nM | 100 to 1000 nM |
| CS(=O)(=O)N1CCC(c2ccc(-c3cc4nccnc4c(NCC4CNC(=O)CO4)n3)cc2)CC1 (stereo not drawn) [Compound 501] |  | 1 to 100 nM | 1 to 100 nM |
| CS(=O)(=O)N1CCCN(c2ccc(-c3cc4nccnc4c(NC[C@@H]4CNCCO4)n3)cc2)CC1 [Compound 502] |  | 1 to 100 nM | 100 to 1000 nM |
| CS(=O)(=O)N1CCN(Cc2ccc(-c3cc4nccnc4c(NC[C@@H]4CNCCO4)n3)cc2)CC1 [Compound 503] |  | 1 to 100 nM | 100 to 1000 nM |
| CCC(=O)N1CCC(c2ccc(-c3cc4nccnc4c(NC[C@@H]4CNCCO4)n3)cc2)CC1 [Compound 504] |  | 1 to 100 nM | 1 to 100 nM |
| COCC(=O)N1CCC(c2ccc(-c3cc4nccnc4c(NC[C@@H]4CNCCO4)n3)cc2)CC1 [Compound 505] |  | 1 to 100 nM | 1 to 100 nM |
| NC(=O)N1CCC(c2ccc(-c3cc4nccnc4c(NC[C@@H]4CNCCO4)n3)cc2)CC1 [Compound 506] |  | 1 to 100 nM | 100 to 1000 nM |
| CCS(=O)(=O)N1CCN(c2ccc(-c3cc4nccnc4c(NC[C@@H]4CN(C(C)=O)CCO4)n3)cc2)CC1 [Compound 510] |  | 1 to 100 nM | 100 to 1000 nM |
| O=C(CO)N1CCC(c2ccc(-c3cc4nccnc4c(NC[C@@H]4CNCCO4)n3)cc2)CC1 [Compound 511] |  | 1 to 100 nM | 1 to 100 nM |
| O=C(CCO)N1CCC(c2ccc(-c3cc4nccnc4c(NC[C@@H]4CNCCO4)n3)cc2)CC1 [Compound 512] |  | 1 to 100 nM | 100 to 1000 nM |
